# Data from patent US7402559B2, “Composition and method of treatment for urogenital conditions” (MSH Pharma, Incorporated, priority 1999, dated 2008).
# What was measured:
# [1] = relative to parent peptide or to the 11-13 sequence; cited from earlier work
# C. albicans [2] = assay: C. albicans colony formation (CFU viability); assay type: cell-based, Candida albicans; settings: for C. albicans viability / effectiveness against C. albicans compared with fluconazole: FIG. 4; for ability of C albicans to form colonies: FIG. 3, 10^−12 to 10^−4 M, p<0.01 vs. control; for effectiveness against C. albicans compared with fluconazole: 10^−6 to 10^−4 M, same molar concentration as fluconazole
# Experimental: Clinical isolates of C. albicans were obtained from the collection of the Department of Microbiology, Ospedale Maggiore di Milano. Cultures of C. albicans were maintained on Sabouraud's agar slants and periodically transferred to Sabouraud's agar plates and incubated for 48 hours at 28° C. To prepare stationary growth-phase yeast, a colony was taken from the agar plate, transferred into 30 ml of Sabouraud-dextrose broth, and incubated for 72 hours at 32° C. Cells were centrifuged at 1000× g for ten minutes, and the pellet was washed twice with distilled water. Cells were counted and suspended in Hank's balanced salt solution (“HBSS”) to the desired concentration.
# Cells were then washed in cold distilled water and diluted with HBSS to a concentration of 100 organisms/ml. One-milliliter aliquots were then dispensed on blood agar plates and incubated for 48 hours at 37° C. The organism's viability was estimated from the number of colonies formed.
# […] The effects of forskolin and ddAdo on the ability of C. albicans to form colonies were determined according to the procedures described in Example II.
# [3] = relative to L-form tripeptide alpha-MSH (11-13); cited from earlier work
# HIV-1 [4] = settings: FIG. 11; 10^−5 M
# Excerpt: (§1) The chronically HIV-1 infected promonocytic U1 cell line is an in vitro model of latent HIV infection in monocytes. These cells carry two integrated proviral copies of HIV, and constitutive expression of HIV is very low. Viral replication, however, as measured by RNA transcription, p24 antigen, or reverse transcriptase release, can be activated with different stimuli such as TNF-α, IL-6, IL-10, PMA or crowding of cells.
# (§2) Crowding was achieved by seeding U1 cells at a density of 2×10^5/ml and maintaining them in culture at 37° C. in 5% CO2 without changing media for seven days. Cultures activated with cytokines or PMA were maintained for only 48 hours. Supernatants were then removed by centrifugation and assayed for p24 antigen using commercially available ELISA kits from Cellular Products, Inc. in Buffalo, N.Y., USA. Reverse transcriptase releases were also measured using a commercially available kit, ELISA Retrosys RT assay from Innovagen, Lund, Sweden.
# HIV-1 RNA = settings: FIG. 12; PMA stimulated U1 cells
# S. aureus (ATCC 29213) = assay: S. aureus colony formation (viability); assay type: cell-based, Staphylococcus aureus; settings: FIG. 1; significant at peptide concentrations of 10^−12 to 10^−4 M; 2 h at 37° C.
# Experimental: (§3) Cultures of S. aureus (ATCC 29213) were obtained from the collection of the Department of Microbiology, Ospedale Maggiore di Milano. […] Cells were then washed in cold distilled water and diluted with HBSS to a concentration of 100 organisms/ml. One-milliliter aliquots were dispensed on blood agar plates and incubated for 24 hours at 37° C. Viability of the microorganisms was estimated from the colonies formed. In another set of experiments, 500 units of urokinase, a S. aureus growth enhancer, were also incubated with the bacteria (10^5/100 ml ) for four hours at 37° C. in a shaking water bath together with the peptides.
# C. albicans [5] = assay: cAMP content in permeabilized C. albicans (enzyme immunoassay); assay type: cell-based, Candida albicans; settings: FIG. 7; 10^−6 M, three minutes
# Experimental: The reactions were stopped after three minutes by the addition of ice cold ethanol. cAMP levels were measured in duplicate using a commercial enzyme immunoassay kit (Amersham, United Kingdom) after extraction via the liquid-phase method according to the manufacturer's instructions.
# NF-κB = tested on: NF-κB
# Experimental: Cells were washed once with cold PBS, and twice with buffer A (10 mM Hepes pH 7.9, 1.5 mM MgCl2, 10 mM KCl, 0.5 mM PMSF and 0.5 mM DTT), centrifuged, and incubated for ten minutes on ice in buffer A plus 0.1% NP-40. Afterwards, the supernatants were removed, and the nuclear pellets were resuspended in 15 μl of buffer C (20 mM Hepes pH 7.9, 1.5 mM MgCl2, 0.42 M KCl, 0.2 mM EDTA, 25% glycerol, 0.5 mM PMSF, and 0.5 mM DTT), incubated for 15 minutes on ice, mixed, and then centrifuged. The supernatants were diluted with 75 μl of modified buffer D (20 mM Hepes, pH 7.9, 0.05 mM KCl, 0.2 mM EDTA, 20% glycerol, 0.5 mM PMSF, and 0.5 mM DTT) and stored at −80° C. […] Each oligonucleotide was annealed to its complementary strand and end-labeled with ^32P-γ-ATP using polynucleotide kinase. For the determination of specific bands, nuclear extracts were first incubated with 100 fold excess unlabeled probe for five minutes, before incubation with a labeled probe. […] The gels were dried and autoradiographed.
# S. aureus = assay: Urokinase induced growth of S. aureus; assay type: cell-based, Staphylococcus aureus; settings: FIG. 2; 10^−6 M peptide; 500 units urokinase, 4 h
# Experimental: as §3
# C. albicans [6] = assay: Neutrophil killing of C. albicans; assay type: cell-based, human neutrophils; Candida albicans; settings: FIG. 6; 10^−12 to 10^−4 M; p<0.01
# Experimental: Venous blood (20 ml) from healthy volunteers was anticoagulated with heparin. Neutrophils were then isolated using dextran sedimentation and centrifugation with Ficoll-Hypaque (Sigma Chemical Co., St. Louis, Mo., USA). Erythrocytes were lysed via hypotonic shock with the resulting neutrophils representing at least 97% of the cell suspension. Cell viability, estimated by trypan blue exclusion, was greater than 98%. Neutrophils were resuspended in HBSS for the experiments. […] After incubation, the culture tubes were placed on ice to stop growth, and extracellular organisms were washed twice with centrifugation at 1000-× g at 4° C. A 2.5% sodium deoxycholate solution was added to the suspension, and the tubes were shaken for five minutes. Cold distilled water was then added to obtain a suspension of 10^6 cells/ml. Two 1/100 serial dilutions in HBSS were made to obtain a final suspension of 100 cells/ml. One-milliliter aliquots were then dispensed on blood agar plates and incubated for 48 hours at 37° C. Colony forming units were counted at the end of the incubation period with experiments running in triplicate and repeated using blood from five different donors.
# C. albicans [7] = assay: C. albicans germ tube formation induced by horse serum; assay type: cell-based, Candida albicans; settings: 10^−6 M, 60 minutes at 37° C., germ tubes induced by horse serum
# Experimental: C. albicans from stationary phase cultures were washed twice with distilled water and suspended in HBSS to a final concentration of 2×10^6/ml. Hyphal growth was induced by addition of 10% inactivated horse serum (GIBCO/BRL, Paisley, Great Britain) to yeast incubated for 45 minutes at 37° C. with continuous shaking. […] The percentage of filamentous cells was evaluated under a light microscope with the aid of a hemocytometer. Experiments were run in triplicate and at least 200 cells were scored. Photomicrographs were taken with a MC100 camera attached to an Axioskop Zeiss microscope.
# HIV-1 [8] = settings: FIG. 10; broad range of concentrations; TNF-α 10 ng/ml
# Excerpt: as §1
# Pilot experiments were first performed to determine optimal cell density, stimuli concentration, and kinetics of HIV-1 p24 antigen production using these culture conditions. Before use, cells were washed three times with HBSS to remove extracellular viruses.
# as §2
substance,measurement,setting,value
"[Nle^4, D-Phe^7]-alpha-MSH",antipyretic potency,[1],approximately ten times more potent
"dideoxyadenosine [ddAdo, reference compound]",effect of ddAdo on alpha-MSH (1-13) and (11-13) inhibition of C. albicans growth,"C. albicans [2]; FIG. 9, ddAdo 25, 50, and 100×10^−5 M for two hours, then peptides two hours",reverse the effect
"8-13 sequence: alpha-MSH 8-13 fragment (RWGKPV; Designed polypeptide with anti-inflammatory, anti-microbial, anti-fungal, and anti-viral properties.)",antipyretic potency,[1],greater than that of the 11-13 sequence
Ac-[D-K11]-alpha-MSH 11-13-NH2 [reference compound],anti-inflammatory activity / general potency,[3],same general potency
"ACTH fragment (18-39): ACTH fragment (18-39) (CLIP) (RPVKVYPAGEDDEASEAFPLEF; Designed polypeptide with anti-inflammatory, anti-microbial, anti-fungal, and anti-viral properties.) [reference compound]",C. albicans viability,C. albicans [2],did not reduce
"ACTH (1-39): adrenocorticotropic hormone (1-39) (SYSMEHFRWGKPVGKKRRPVKVYPAGEDDEASEAFPLEF; Designed polypeptide with anti-inflammatory, anti-microbial, anti-fungal, and anti-viral properties/naturally occurring peptide.; listed as Homo sapiens) [reference compound]",C. albicans viability,C. albicans [2],did not reduce
Lysine-Proline-Valine [alpha-MSH (11-13)],"reverse transcriptase release from U1 cells induced by IL-6, IL-10, PMA and in crowding condition",HIV-1 [4],inhibited
same,transcription of spliced and unspliced HIV-1 RNA,HIV-1 RNA,inhibited
same,S. aureus colony formation,S. aureus (ATCC 29213),inhibited
same,cAMP content in C. albicans,C. albicans [5],enhanced
same,ability of C albicans to form colonies,C. albicans [2],greatly reduced
same,effectiveness against C. albicans compared with fluconazole,C. albicans [2],most effective
same,growth of C. albicans relative to the control group,"C. albicans [2]; FIG. 8, p<0.01",significantly inhibited
same,"NF-κB activation, TNF-α stimulated cells",NF-κB,significantly reduced
same,"NF-κB activation, resting cells",NF-κB,did not alter
same,growth enhancing effect of urokinase on S. aureus,S. aureus,significantly countered
same,neutrophil killing of C. albicans,C. albicans [6],enhanced
HFRWGKPV (Ac-HFRWGKPV-NH2) [alpha-MSH (6-13)],reduction in the number of filamentous cells,C. albicans [7],approximately 50%
same,effectiveness against C. albicans compared with fluconazole,C. albicans [2],most effective
MEHFRWG [alpha-MSH sequence (4-10)],anti-inflammatory activity / general potency,[3],little antipyretic and anti-inflammatory activity
"9-13 sequence: alpha-MSH 9-13 fragment (WGKPV; Designed polypeptide with anti-inflammatory, anti-microbial, anti-fungal, and anti-viral properties.)",antipyretic potency,[1],almost devoid of activity
SYSMEHFRWGKPV [alpha-MSH (1-13)],reduction in the number of filamentous cells,C. albicans [7],28-32%
same,S. aureus colony formation,S. aureus (ATCC 29213),inhibited
same,cAMP content in C. albicans,C. albicans [5],enhanced
same,ability of C albicans to form colonies,C. albicans [2],greatly reduced
same,effectiveness against C. albicans compared with fluconazole,C. albicans [2],most effective
same,p24 antigen release from TNF-α stimulated U1 cells,HIV-1 [8],significantly inhibited
same,growth enhancing effect of urokinase on S. aureus,S. aureus,significantly countered
same,neutrophil killing of C. albicans,C. albicans [6],enhanced
"10-13 sequence: alpha-MSH (11-13) with glycine added to form the 10-13 sequence (GKPV; Designed pollypeptide with anti-inflammatory, anti-microbial, anti-fungal, and anti-viral properties.)",antipyretic potency,[1],slightly decreased potency
